In US11447517B2, “Galactoside inhibitor of galectins” (GALECTO BIOTECH AB, priority 2018, dated 2022):

Columns and labels:
[1] = test system: galectins; settings: cited from earlier work
[2] = molecular target: galectin-3 (Homo sapiens (Human), UniProt P17931); assay: Fluorescence anisotropy assay, inhibition of galectin / fluorescein tagged saccharide probe interaction; assay type: binding
[3] = Uptake over CACO-2 cell monolayers; assay type: in vitro ADME; settings: human; for Papp A→B: apical to basolateral; for Papp B→A: basolateral to apical; for efflux ratio: read-out: Efflux ratio Papp (B > A/A > B)
Excerpt: Uptake of a drug over the intestine can be predicted measuring the uptake over a monolayer of CACO-2 cells measured as Papp(10^-6 cm/s). […] By introduction of small alkyl substituents to the galactoside 2-OH such as compounds of formula (1) results in low or no efflux combined with a high uptake (Papp >10 10^-6 cm/s) over CACO-2 cells from the apical to the basolateral side of the cells.

Chain of galectin-3 (P17931 whole entry): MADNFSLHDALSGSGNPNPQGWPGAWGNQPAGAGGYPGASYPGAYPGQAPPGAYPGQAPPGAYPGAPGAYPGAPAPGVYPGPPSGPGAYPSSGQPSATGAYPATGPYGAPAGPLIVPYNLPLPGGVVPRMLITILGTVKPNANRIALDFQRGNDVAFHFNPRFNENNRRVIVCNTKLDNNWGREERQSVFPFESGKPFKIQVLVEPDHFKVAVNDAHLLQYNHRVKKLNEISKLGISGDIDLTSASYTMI

Kd [2] [µM]	Papp A→B [3] [×10⁻⁶ cm/s]	Papp B→A [3] [×10⁻⁶ cm/s]	efflux ratio [3]	SMILES	Affinity, times lower than lactose ([1]; relative to lactose)	Kd ([1]; Leffler 2001, Leffler et al. 2004, read-out: Kd, all galectins) [µM]
0.045	31	45	1.4	CO[C@@H]1[C@@H](n2cc(-c3ccc(C)c(F)c3)nn2)[C@@H](O)[C@@H](CO)O[C@@H]1Sc1cncc(Cl)c1 [Example 35, 5-Chloropyridin-3-yl 3-deoxy-3-[4-(3-fluoro-4-methylphenyl)-1H-1,2,3-triazol-1-yl]-2-O-methyl-1-thio-α-D-galactopyranoside]		
0.039	26	34	1.3	CO[C@@H]1[C@@H](n2cc(-c3ccc(C)c(F)n3)nn2)[C@@H](O)[C@@H](CO)O[C@@H]1Sc1cncc(Cl)c1 [Example 43, 5-Chloropyridin-3-yl 3-deoxy-3-[4-(6-fluoro-5-methylpyridin-2-yl)-1H-1,2,3-triazol-1-yl]-2-O-methyl-1-thio-α-D-galactopyranoside]		
0.026	28	32	1.1	CO[C@@H]1[C@@H](n2cc(-c3ccc(C)c(F)c3)nn2)[C@@H](O)[C@@H](CO)O[C@@H]1Sc1cncc(Br)c1 [Example 36, 5-Bromopyridin-3-yl 3-deoxy-3-[4-(3-fluoro-4-methylphenyl)-1H-1,2,3-triazol-1-yl]-2-O-methyl-1-thio-α-D-galactopyranoside]		

The next lines start with the compound.

SMILES	Kd [2] [µM]	Papp A→B [3] [×10⁻⁶ cm/s]	Papp B→A [3] [×10⁻⁶ cm/s]	efflux ratio [3]	Affinity, times lower than lactose ([1]; relative to lactose)	Kd ([1]; Leffler 2001, Leffler et al. 2004, read-out: Kd, all galectins) [µM]
O=C[C@H](O)[C@@H](O)[C@@H](O)[C@H](O)CO [D-galactose]					50-100 times	
CO[C@@H]1[C@@H](n2cc(-c3ccc(C)c(F)c3)nn2)[C@@H](O)[C@@H](CO)O[C@@H]1Sc1cc(Cl)cnc1C#N [Example 13, 5-Chloro-2-cyanopyridin-3-yl 3-deoxy-3-[4-(3-fluoro-4-methylphenyl)-1H-1,2,3-triazol-1-yl]-2-O-methyl-1-thio-α-D-galactopyranoside]	0.014	18	23	1.3		
OC[C@H]1O[C@@H](O[C@H]2[C@H](O)[C@@H](O)C(O)O[C@@H]2CO)[C@H](O)[C@@H](O)[C@H]1O (stereo partly shown) [lactose]						500 to 1000
CO[C@@H]1[C@@H](n2cc(-c3cc(F)c(F)c(F)c3)nn2)[C@@H](O)[C@@H](CO)O[C@@H]1Sc1cncc(Br)c1 [Example 1, 5-Bromopyridin-3-yl 3-deoxy-3-[4-(3,4,5-trifluorophenyl)-1H-1,2,3-triazol-1-yl]-2-O-methyl-1-thio-α-D-galactopyranoside]	0.025	30	38	1.2		
